For one compound, Ki results are on record in publication PMC5384650 (Molecular microbiology, 2016).

The assay addresses T1, threonine dehydratase (IlvA) (Salmonella enterica, UniProt P20506).
T1 sequence (P20506 1-514): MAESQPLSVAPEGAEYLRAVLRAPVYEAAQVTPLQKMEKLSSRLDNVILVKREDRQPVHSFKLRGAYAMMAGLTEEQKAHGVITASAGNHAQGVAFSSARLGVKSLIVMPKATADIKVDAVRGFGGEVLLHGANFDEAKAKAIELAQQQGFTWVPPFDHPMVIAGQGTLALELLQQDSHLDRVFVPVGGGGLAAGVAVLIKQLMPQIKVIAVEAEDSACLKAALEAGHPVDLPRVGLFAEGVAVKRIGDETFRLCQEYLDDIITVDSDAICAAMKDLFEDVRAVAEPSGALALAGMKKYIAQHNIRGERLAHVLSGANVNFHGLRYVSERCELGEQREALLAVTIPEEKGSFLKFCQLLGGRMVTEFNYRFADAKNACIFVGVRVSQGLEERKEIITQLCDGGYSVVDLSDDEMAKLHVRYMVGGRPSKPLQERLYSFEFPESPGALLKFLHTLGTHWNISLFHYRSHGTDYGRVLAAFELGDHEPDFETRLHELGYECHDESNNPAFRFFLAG
Type of assay: biochemical.

One may read the Ki as a measure of affinity in units of concentration, obtained from inhibition or displacement. A high value points to weaker binding. The compound `NC[C@H](N)C(=O)O` [Dap, L-2,3-diaminopropionate] returned a Ki of 1700 µM.
